Measured values: patent publication US10233173B2, “Substituted 1,2,3-triazoles as NR2B-selective NMDA modulators” (JANSSEN PHARMACEUTICA NV, priority 2016, dated 2019)

target: human GluN1/GluN2B NMDA receptors (Homo sapiens, UniProt Q05586+Q13224); assay: Cell-based calcium flux (FLIPR) assay on cloned human NR1/NR2B ion channels expressed in mammalian cells; conditions: standard assay; glutamate at ~EC80; FLIPR calcium flux
How it was run: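 Calcium influx followed by FLIPR fluorescence after 5 min compound exposure and a further 5 min co-agonist challenge: 10 μM glycine with glutamate at ~EC80 (standard) or EC40 (HTS).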

Chain of human GluN1/GluN2B NMDA receptors (Q13224 27-1484, other chains not shown): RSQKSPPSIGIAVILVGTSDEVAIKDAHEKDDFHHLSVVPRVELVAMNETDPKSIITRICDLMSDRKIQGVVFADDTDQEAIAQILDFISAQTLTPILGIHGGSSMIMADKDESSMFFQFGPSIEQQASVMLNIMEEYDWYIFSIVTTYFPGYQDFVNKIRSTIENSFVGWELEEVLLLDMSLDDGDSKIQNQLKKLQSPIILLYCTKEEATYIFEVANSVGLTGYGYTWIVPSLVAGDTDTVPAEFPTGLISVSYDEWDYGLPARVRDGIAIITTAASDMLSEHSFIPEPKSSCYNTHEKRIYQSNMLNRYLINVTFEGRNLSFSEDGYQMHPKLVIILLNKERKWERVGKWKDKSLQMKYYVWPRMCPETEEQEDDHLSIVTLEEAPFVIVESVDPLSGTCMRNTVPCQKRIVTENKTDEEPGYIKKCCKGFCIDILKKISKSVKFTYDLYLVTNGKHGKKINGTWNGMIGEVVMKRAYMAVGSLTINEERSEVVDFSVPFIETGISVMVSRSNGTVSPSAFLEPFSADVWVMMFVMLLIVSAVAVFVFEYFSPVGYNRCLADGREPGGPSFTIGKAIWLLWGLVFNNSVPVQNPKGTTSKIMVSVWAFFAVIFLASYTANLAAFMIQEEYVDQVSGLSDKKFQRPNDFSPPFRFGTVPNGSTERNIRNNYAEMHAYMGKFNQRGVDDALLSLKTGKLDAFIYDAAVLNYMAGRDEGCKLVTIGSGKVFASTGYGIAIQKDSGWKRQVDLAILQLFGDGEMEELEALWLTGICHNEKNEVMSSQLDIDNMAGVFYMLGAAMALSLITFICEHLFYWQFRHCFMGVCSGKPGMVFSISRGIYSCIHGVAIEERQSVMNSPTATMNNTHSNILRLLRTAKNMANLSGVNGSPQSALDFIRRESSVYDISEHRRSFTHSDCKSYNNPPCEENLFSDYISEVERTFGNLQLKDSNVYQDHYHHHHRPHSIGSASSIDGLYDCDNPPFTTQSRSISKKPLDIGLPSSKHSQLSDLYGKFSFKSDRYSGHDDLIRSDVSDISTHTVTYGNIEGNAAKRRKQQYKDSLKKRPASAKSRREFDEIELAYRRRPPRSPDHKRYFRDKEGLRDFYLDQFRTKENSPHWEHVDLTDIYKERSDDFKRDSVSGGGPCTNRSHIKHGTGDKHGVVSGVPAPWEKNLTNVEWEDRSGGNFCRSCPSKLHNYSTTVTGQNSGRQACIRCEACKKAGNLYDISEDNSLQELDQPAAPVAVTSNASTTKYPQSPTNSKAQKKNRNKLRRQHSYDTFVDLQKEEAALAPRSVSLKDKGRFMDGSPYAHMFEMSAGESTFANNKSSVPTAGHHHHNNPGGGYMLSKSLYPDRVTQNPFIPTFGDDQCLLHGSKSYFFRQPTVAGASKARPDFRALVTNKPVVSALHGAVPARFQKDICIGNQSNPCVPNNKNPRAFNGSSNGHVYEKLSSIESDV

| SMILES | IC50 [µM] |
| --- | --- |
| Cc1cc(C)nc(OCc2cn(-c3ccc(Cl)c(C(C)(F)F)c3)nn2)n1 [Example 546, 2-[[1-[4-Chloro-3-(1,1-difluoroethyl)phenyl]triazol-4-yl]methoxy]-4,6-dimethyl-pyrimidine] | 0.024 |
| Cc1c(F)ccc(-n2cc(COc3nccc(C(C)C)n3)nn2)c1F [Example 640, 2-[[1-(2,4-Difluoro-3-methyl-phenyl)triazol-4-yl]methoxy]-4-isopropyl-pyrimidine] | 1.98 |
| Cc1ccc(F)c(-n2cc(COc3ncc(Cl)c(C)n3)nn2)c1 [Example 485, 5-Chloro-2-[[1-(2-fluoro-5-methyl-phenyl)triazol-4-yl]methoxy]-4-methyl-pyrimidine] | 1.01 |
| Fc1ccc(-n2cc(COc3ccc(C(F)(F)F)cn3)nn2)cc1C(F)(F)F [Example 432, 2-[[1-[4-Fluoro-3-(trifluoromethyl)phenyl]triazol-4-yl]methoxy]-5-(trifluoromethyl)pyridine] | 0.528 |
| Cc1cnc(OCc2cn(-c3cccc(C)c3F)nn2)nc1 [Example 467, 2-[[1-(2-Fluoro-3-methyl-phenyl)triazol-4-yl]methoxy]-5-methyl-pyrimidine] | 0.711 |
| CC(F)(F)c1cc(-n2cc(COc3ncc(C(F)F)cn3)nn2)ccc1Cl [Example 535, 2-[[1-[4-Chloro-3-(1,1-difluoroethyl)phenyl]triazol-4-yl]methoxy]-5-(difluoromethyl)pyrimidine] | 0.009 |
| Fc1ccc(-n2cc(COc3nccc(-n4cccn4)n3)nn2)cc1C(F)F [Example 699, 2-((1-(3-(Difluoromethyl)-4-fluorophenyl)-1H-1,2,3-triazol-4-yl)methoxy)-4-(1H-pyrazol-1-yl)pyrimidine] | 0.389 |
| Fc1ccc(-n2cc(COc3nccc(N4CC[C@@H](F)C4)n3)nn2)cc1OC(F)F [Example 512, (R)-2-[[1-[3-(Difluoromethoxy)-4-fluoro-phenyl]triazol-4-yl]methoxy]-4-[(3R)-3-fluoropyrrolidin-1-yl]pyrimidine] | 0.308 |
| Nc1cnc(OCc2cn(-c3ccc(F)c(OC(F)F)c3)nn2)nc1 [Example 502, 2-[[1-[3-(Difluoromethoxy)-4-fluoro-phenyl]triazol-4-yl]methoxy]pyrimidin-5-amine] | 0.136 |
| COCc1ccnc(OCc2cn(-c3ccc(F)c(C(F)(F)F)c3)nn2)n1 [Example 438, 2-[[1-[4-Fluoro-3-(trifluoromethyl)phenyl]triazol-4-yl]methoxy]-4-(methoxymethyl)pyrimidine] | 0.094 |
| Cc1nc(OCc2cn(-c3ccc(F)c(C(F)(F)F)c3)nn2)ncc1F [Example 445, 5-Fluoro-2-[[1-[4-fluoro-3-(trifluoromethyl)phenyl]triazol-4-yl]methoxy]-4-methyl-pyrimidine] | 0.006 |
| FC(F)c1cc(-n2cc(COc3nccc(C4CC4)n3)nn2)ccc1Cl [Example 631, 2-[[1-[4-Chloro-3-(difluoromethyl)phenyl]triazol-4-yl]methoxy]-4-cyclopropyl-pyrimidine] | 0.042 |
| FCCOc1cnc(OCc2cn(-c3ccc(F)c(Br)c3)nn2)nc1 [Example 618, 2-[[1-(3-Bromo-4-fluoro-phenyl)triazol-4-yl]methoxy]-5-(2-fluoroethoxy)pyrimidine] | 0.006 |
| CN(C)c1cnc(OCc2cn(-c3ccc(F)c(C(C)(F)F)c3)nn2)nc1 [Example 590, 2-((1-(3-(1,1-Difluoroethyl)-4-fluorophenyl)-1H-1,2,3-triazol-4-yl)methoxy)-N,N-dimethylpyrimidin-5-amine] | 0.039 |
| Cc1cccc(OCc2cn(-c3ccc(F)c(C(F)(F)F)c3)nn2)n1 [Example 430, 2-[[1-[4-Fluoro-3-(trifluoromethyl)phenyl]triazol-4-yl]methoxy]-6-methyl-pyridine] | 0.11 |
| Fc1ccc(-n2cc(COc3ccc(Cl)cn3)nn2)cc1C(F)(F)F [Example 428, 5-Chloro-2-[[1-[4-fluoro-3-(trifluoromethyl)phenyl]triazol-4-yl]methoxy]pyridine] | 0.796 |
| CC(F)(F)c1cc(-n2cc(COc3nccc(N)n3)nn2)ccc1F [Example 580, 2-[[1-[3-(1,1-Difluoroethyl)-4-fluoro-phenyl]triazol-4-yl]methoxy]pyrimidin-4-amine] | 0.088 |
| COCc1cnc(OCc2cn(-c3ccc(F)c(C(F)(F)F)c3)nn2)nc1 [Example 437, 2-[[1-[4-Fluoro-3-(trifluoromethyl)phenyl]triazol-4-yl]methoxy]-5-(methoxymethyl)pyrimidine] | 0.071 |
| Fc1c(Cl)cccc1-n1cc(COc2ncccn2)nn1 [Example 611, 2-[[1-(3-Chloro-2-fluoro-phenyl)triazol-4-yl]methoxy]pyrimidine] | > 10 |
| FC(F)c1cc(-n2cc(COc3nccc(N4CCCCC4)n3)nn2)ccc1Cl [Example 635, 2-[[1-[4-Chloro-3-(difluoromethyl)phenyl]triazol-4-yl]methoxy]-4-(1-piperidyl)pyrimidine] | 0.169 |

same assay, conditions: standard assay; human GluN1/GluN2B, calcium flux (FLIPR), glutamate ~EC80

| SMILES | IC50 [µM] |
| --- | --- |
| CC(F)(F)c1cccc(-n2cc(COc3nccc(C(F)F)n3)nn2)c1 [Example 303, 2-[[1-[3-(1,1-Difluoroethyl)phenyl]triazol-4-yl]methoxy]-4-(difluoromethyl)pyrimidine] | 0.085 |
| Fc1ccc(-n2cc(CNc3ncc(C(F)(F)F)cn3)nn2)cc1C(F)F [Example 213, N-[[1-[3-(Difluoromethyl)-4-fluoro-phenyl]triazol-4-yl]methyl]-5-(trifluoromethyl)pyrimidin-2-amine] | 0.108 |
| COc1cccnc1OCc1cn(-c2ccc(Cl)c(OC(F)F)c2)nn1 [Example 108, 2-[[1-[4-Chloro-3-(difluoromethoxy)phenyl]triazol-4-yl]methoxy]-3-methoxy-pyridine] | 0.114 |
| COc1cc(-n2cc(COc3ncccn3)nn2)ccc1F [Example 20, 2-[[1-(4-Fluoro-3-methoxy-phenyl)triazol-4-yl]methoxy]pyrimidine] | 1 |
| C[C@@H](Oc1ncc(Cl)cn1)c1cn(-c2ccc(Cl)c(OC(F)F)c2)nn1 [Example 375, 5-Chloro-2-[(1R)-1-[1-[4-chloro-3-(difluoromethoxy)phenyl]triazol-4-yl]ethoxy]pyrimidine] | 0.01 |
| Cc1cccc(-n2cc(COc3ncc(Cl)c(C)n3)nn2)c1 [Example 253, 5-Chloro-4-methyl-2-[[1-(m-tolyl)triazol-4-yl]methoxy]pyrimidine] | 0.007 |
| Cc1ccc(OCc2cn(-c3ccc(F)c(OC(F)F)c3)nn2)nc1 [Example 118, 2-[[1-[3-(Difluoromethoxy)-4-fluoro-phenyl]triazol-4-yl]methoxy]-5-methyl-pyridine] | 0.026 |
| Cc1cnc(OCc2cn(-c3ccc(C(F)(F)F)s3)nn2)nc1 [Example 120, 5-Methyl-2-((1-(5-(trifluoromethyl)thiophen-2-yl)-1H-1,2,3-triazol-4-yl)methoxy)pyrimidine] | 0.005 |
| FCCOc1cnc(OCc2cn(-c3ccc(Cl)c(OC(F)F)c3)nn2)nc1 [Example 192, 2-[[1-[4-Chloro-3-(difluoromethoxy)phenyl]triazol-4-yl]methoxy]-5-(2-fluoroethoxy)pyrimidine] | 0.03 |
| FC(F)Oc1cc(-n2cc(CNc3ncccn3)nn2)ccc1Cl [Example 98, N-[[1-[4-Chloro-3-(difluoromethoxy)phenyl]triazol-4-yl]methyl]pyrimidin-2-amine] | 0.331 |
| CC(F)(F)c1cc(-n2cc(COc3ncccn3)nn2)ccc1F [Example 78, 2-[[1-[3-(1,1-Difluoroethyl)-4-fluoro-phenyl]triazol-4-yl]methoxy]pyrimidine] | 0.06 |
| Cc1ccc(-n2cc(COc3ncccn3)nn2)cc1 [Example 256, 2-[[1-(p-Tolyl)triazol-4-yl]methoxy]pyrimidine] | 4.42 |
| Cc1cnc(Cl)nc1OCc1cn(-c2cccc(C(F)F)c2)nn1 [Example 280, 2-Chloro-4-[[1-[3-(difluoromethyl)phenyl]triazol-4-yl]methoxy]-5-methyl-pyrimidine] | 0.173 |
| CCc1cnc(OCc2cn(-c3ccccc3C)nn2)nc1 [Example 241, 5-Ethyl-2-[[1-(o-tolyl)triazol-4-yl]methoxy]pyrimidine] | 1.46 |
| Cc1cccc(-n2cc(COc3ncc(F)cn3)nn2)c1 [Example 247, 5-Fluoro-2-[[1-(m-tolyl)triazol-4-yl]methoxy]pyrimidine] | 0.34 |
| Fc1ccc(-n2cc(COc3ncc(Cl)cn3)nn2)cc1Br [Example 42, 2-((1-(3-bromo-4-fluorophenyl)-1H-1,2,3-triazol-4-yl)methoxy)-5-chloropyrimidine] | 0.003 |
| CC(C)c1ccnc(OCc2cn(-c3cccc(C(F)F)c3)nn2)n1 [Example 270] | 0.617 |
| Fc1ccc(-n2cc(COc3ncccn3)nn2)cc1OC(F)F [Example 33, 2-[[1-[3-(Difluoromethoxy)-4-fluoro-phenyl]triazol-4-yl]methoxy]pyrimidine] | 0.018 |
| Fc1cccc(-n2cc(COc3ncc(Cl)cn3)nn2)c1 [Example 231, 5-Chloro-2-[[1-(3-fluorophenyl)triazol-4-yl]methoxy]pyrimidine] | 0.389 |
| Fc1ccc(-n2cc(COc3ccc(Cl)cn3)nn2)cc1C(F)F [Example 112, 5-Chloro-2-[[1-[3-(difluoromethyl)-4-fluoro-phenyl]triazol-4-yl]methoxy]pyridine] | 0.056 |
| Cc1cnc(OCc2cn(-c3ccc4c(c3)CCC4)nn2)nc1 [Example 366, 2-[(1-Indan-5-yltriazol-4-yl)methoxy]-5-methyl-pyrimidine] | 0.02 |
| Cc1cnc(OCc2cn(-c3cccc(C(F)F)c3)nn2)nc1 [Example 89, 2-[[1-[3-(Difluoromethyl)phenyl]triazol-4-yl]methoxy]-5-methyl-pyrimidine] | 0.011 |
| CCc1cnc(OCc2cn(-c3cccc(C(C)C)c3)nn2)nc1 [Example 267, 5-Ethyl-2-[[1-(3-isopropylphenyl)triazol-4-yl]methoxy]pyrimidine] | 0.012 |
